Test results as given in US4555525A, “Use of desethyl-N-acetylprocainamide (NAPADE) as an inotropic agent” (Administrators of the Tulane Educational Fund, priority 1984, dated 1985).
Where “and” joins values, the source holds several entries; their conditions need not be identical. Identical values can stand only once. Entries after “also recorded” stand apart in the source; their conditions may differ. Like-named read-outs stand apart in the source and are kept apart here.

Assays:
[1] = system: cardiac muscle; experiment: Cardiovascular effects of procainamide and NAPA, for comparison with NAPADE; format: in vivo; conditions: procainamide or NAPA; for effect on force of contraction of the heart muscle (inotropic effect): procainamide at 60 mg/kg i.v. as a 15 minute infusion, 60 mg/kg
[2] = NAPADE pharmacokinetics in chloralose-urethane anesthetized dogs (HPLC plasma levels, two-compartment model); format: in vivo, dog (male mongrel)
Protocol: Blood samples were obtained over a period of 5-120 minutes to measure NAPADE plasma concentration by high-performance liquid chromatography (HPLC) and to construct a plasma concentration versus time curve of FIG. 1.
The pharmacokinetics of NAPADE were analyzed with a two-compartment model with elimination from the central compartment. The method of residuals was used to resolve the exponential components of each plasma concentration versus time curve and to obtain estimates of alpha and beta (first-order rate constants) and A and B intercepts corrected to 0-time using the method of Loo and Reigelman. These parameters were then used to estimate apparent volume of distribution (V central, V peripheral, V total) and clearance values (Cl intercompartmental, Cl elimination) for each dog according to standard pharmacokinetic methodology.

[3] = system: cardiac muscle; experiment: Cardiovascular effects in chloralose-urethane anesthetized dogs (myocardial force, heart rate, mean arterial pressure); format: in vivo, dog (male mongrel)
Text: We have investigated the cardiovascular effects of NAPADE in animal models and have observed the following unique properties of NAPADE: […]
(§1) Myocardial force, mean arterial pressure and heart rate are expressed as the percent change from baseline for each experimental group. Statistical analysis was done with analysis of variance for repeated measurements and Duncan's multiple range test. All values are mean ± SEM.

[4] = system: β-adrenergic receptor; experiment: Cardiovascular effects of NAPADE after pretreatment with propranolol in anesthetized dogs; format: in vivo, dog (male mongrel)
Text: as §1

[5] = mice; cited from earlier work
[6] = system: cardiac muscle; experiment: NAPA effect after pretreatment with propranolol; format: in vivo
[7] = cited from earlier work
[8] = NAPADE-HCl 60 mg/kg, 15-minute IV infusion
[9] = individual dogs No. 1-8, one line per dog, NAPADE-HCl 60 mg/kg, 15-minute IV infusion, 60 mg/kg
[10] = NAPADE-HCl 60 mg/kg IV after propranolol 0.5 mg/kg followed by 10 μg/kg/min

For `CCN(CC)CCNC(=O)c1ccc(N)cc1` [procainamide, Procainamide], the “effect on blood pressure (hypotensive effect)” value (“effect on blood pressure” for short) [1] was “exhibits hypotensive effects”, the “effect on heart rate” value [1] was “decreases the heart rate” and the “effect on force of contraction of the heart muscle (inotropic effect)” value [1] was “decreases the force of contraction of the heart muscle; also recorded: negative inotropic effect”.
For `CCNCCNC(=O)c1ccc(NC(C)=O)cc1` [NAPADE, Desethyl-N-acetylprocainamide], the “decline of plasma concentrations / kinetics of elimination” value [2, 8] was “declined in a bi-exponential fashion; also recorded: bi-exponential kinetics of elimination”, the “apparent volume of distribution, NAPADE as a fraction of NAPA value” ([2]; compared with NAPA from previous studies) was “approximately one-third” and the half-life ([2]; dog, plasma, iv, 60 mg/kg, individual dogs No. 1-8, one line per dog, NAPADE-HCl 60 mg/kg, 15-minute IV infusion, read-out: T1/2(BETA) (elimination half-life)) was 55 min. For the same compound, the half-life ([2]; dog, plasma, iv, 60 mg/kg, mean of 8 dogs (± SEM in text), NAPADE-HCl 60 mg/kg, 15-minute IV infusion, read-out: T1/2 beta (terminal / elimination half-life)) was 54.5 ± 2.9 min, the clearance ([2]; dog, plasma, iv, 60 mg/kg, mean of 8 dogs, NAPADE-HCl 60 mg/kg, 15-minute IV infusion, read-out: ClELIMINATION (elimination clearance)) was 8.56 mL/min/kg and the Vd ([2]; dog, plasma, iv, 60 mg/kg, mean of 8 dogs, NAPADE-HCl 60 mg/kg, 15-minute IV infusion, read-out: VCENTRAL (volume of the central compartment)) was 0.153 L/kg. The Vd ([2]; dog, plasma, iv, 60 mg/kg, mean of 8 dogs, NAPADE-HCl 60 mg/kg, 15-minute IV infusion, read-out: VTOTAL (total apparent volume of distribution)) was 0.513 L/kg, the Cmax at 0.25 h ([2]; dog, plasma, NAPADE-HCl 60 mg/kg, 15-minute IV infusion, at 15 minutes, mean ± SEM, read-out: peak NAPADE concentrations (plasma)) was 165 ± 18.1 µg/mL and the Tmax ([2]; dog, plasma, NAPADE-HCl 60 mg/kg, 15-minute IV infusion, read-out: time of peak plasma concentrations (converted)) was 15 min. For the same compound, the “ClINTERC. (intercompartmental clearance)” value ([2]; individual dogs No. 1-8, one line per dog, NAPADE-HCl 60 mg/kg, 15-minute IV infusion) was 7.46 mL/min/kg and 9.99 mL/min/kg and 24.67 mL/min/kg and 9.91 mL/min/kg and 24.12 mL/min/kg and 22.45 mL/min/kg and 9.31 mL/min/kg and 15.77 mL/min/kg, the “ClELIMINATION (elimination clearance)” value [2, 9] was 8.17 mL/min/kg and 4.99 mL/min/kg and 12.61 mL/min/kg and 7.34 mL/min/kg and 13.11 mL/min/kg and 11.54 mL/min/kg and 5.75 mL/min/kg and 5 mL/min/kg and the “T1/2(BETA) (elimination half-life)” value [2, 9] was 60 min and 67 min and 57 min and 56 min and 40 min and 47 min and 54 min. For the same compound, the “VTOTAL (total apparent volume of distribution)” value [2, 9] was 0.447 L/kg and 0.342 L/kg and 0.893 L/kg and 0.476 L/kg and 0.806 L/kg and 0.499 L/kg and 0.293 L/kg and 0.346 L/kg, the “ClINTERC. (intercompartmental clearance)” value ([2]; mean of 8 dogs, NAPADE-HCl 60 mg/kg, 15-minute IV infusion) was 15.46 mL/min/kg and the “ClELIMINATION (elimination clearance)” value ([2]; mean of 8 dogs, NAPADE-HCl 60 mg/kg, 15-minute IV infusion, 60 mg/kg) was 8.56 ± 1.2 mL/min/kg. The “duration of inotropic and chronotropic actions” value ([3]; NAPADE-HCl 60 mg/kg IV) was 50 to 90 min, the “duration of significantly increased myocardial force” value ([3]; NAPADE-HCl 60 mg/kg IV, compared to the control group) was 90 min and the “duration of significantly increased heart rate” value ([3]; NAPADE-HCl 60 mg/kg IV, over control) was 50 min. For the same compound, the “time of peak effects (inotropic and chronotropic)” value [3, 8] was 15 min, the “maximum increase in heart rate over baseline” value ([3]; NAPADE-HCl 60 mg/kg, 15-minute IV infusion, mean ± SEM) was 22.2±4.4 percent over baseline and the “maximum increase in myocardial force over baseline” value ([3]; NAPADE-HCl 60 mg/kg, 15-minute IV infusion, right ventricular, mean ± SEM) was 48.9±10 percent over baseline. The “effect on blood pressure” value ([3]; NAPADE, result in words) was “lacks significant hypotensive effects; also recorded: small and statistically insignificant changes in blood pressure; also recorded: without significant changes in systemic arterial pressure”, the “effect on heart rate (chronotropic effect)” value ([3]; NAPADE, result in words) was “positive chronotropic effect; also recorded: significant increases in myocardial force and heart rate; also recorded: significant positive inotropic and chronotropic actions” and the “effect on myocardial force of contraction (inotropic effect)” value ([3]; NAPADE, result in words) was “positive inotropic effects; also recorded: very significant increase in myocardial force of contraction; also recorded: significant increases in myocardial force; also recorded: significant positive inotropic and chronotropic actions”. The “negative inotropic (myocardial depressant) effect after propranolol pretreatment” value ([4]; NAPADE in the presence of β-adrenergic receptor blockade with propranolol) was “lacks negative inotropic effects; also recorded: No such effect was seen”, the “blood pressure effect after propranolol pretreatment” value [4, 10] was “only a mild decrease in blood pressure; also recorded: seemed to potentiate the mild hypotensive actions; also recorded: potentiated the mild hypotensive actions” and the “chronotropic action after propranolol pretreatment” value [4, 10] was “abolishes the positive inotropic and chronotropic actions; also recorded: effectively blocked the positive inotropic and chronotropic actions”. For the same compound, the “inotropic action after propranolol pretreatment” value [4, 10] was “abolishes the positive inotropic and chronotropic actions; also recorded: effectively blocked the positive inotropic and chronotropic actions” and the antifibrillatory activity [5] was “antifibrillatory activity”.
In the case of `CCN(CC)CCNC(=O)c1ccc(NC(C)=O)cc1` [NAPA, N-acetylprocainamide], the “effect on blood pressure” value [1] is reported as “exhibiting hypotensive effects”, the “effect on heart rate” value [1] is reported as “decreasing the heart rate” and the “effect on force of contraction of the heart muscle (inotropic effect)” value [1] is reported as “increases the force of contraction of heart muscle; also recorded: positive inotropic effects”. The “inotropic action after propranolol pretreatment” value [6] was “negative inotropic action is apparent”, the elimination half-life ([7]; NAPA in the dog, approximate) was “approximately six” and the elimination clearance ([7]; NAPA in the dog) was 2.64 ± 0.9 mL/min/kg. For the same compound, the “apparent volume of distribution (Vtotal)” value ([7]; NAPA, previous studies) was 1.48 ± 0.16 L/kg.
